Laboratory results: patent US12565485B2, “Solid forms of 1-((S)-4-((R)-7-(6-amino-4-methyl-3-(trifluoromethyl)pyridin-2-yl)-6-chloro-8-fluoro-2-(((s)-1-methylpyrrolidin-2-yl)methoxy)quinazolin-4-yl)-3-methylpiperazin-1-yl)prop-2-en-1-one” (Genentech, Inc., priority 2022, dated 2026)

Columns and labels:
Assay type in all cases: physicochemical
[1] = Heating under N2 protection (VT-XRPD), form change; settings: heating to 100° C. under N2 protection, cooled down and exposed to ambient conditions; listed as adipate Type A
Method: Compound B Form A was obtained from an acetone system and the sample was air dried at RT. […] (peak temperature) before the possible overlapped peak with peak temperature at 156.3° C. (FIG. 12). Based on the integrals, the stoichiometric ratio of fumaric acid:freebase was determined to be 1.03. A peak of acetone was observed and approximately 0.49 molar acetone (4.4 wt %) was detected. The HPLC purity of Compound B Form A was determined to be 93.56 area %. […] Around 0.39 molar acetone (3.5 wt %) was still detected. One endotherm at 58.7° C. and an overlapped peak with peak temperature at 157.1° C. were still observed on the sample obtained after heating. The first endotherm might be caused by re-adsorption of moisture. Since ˜3.5 wt % acetone was still detected from NMR, Compound B Form A is expected to be an acetone/H2O co-solvate. […]

[2] = Anti-solvent addition; settings: Compound A
Method: Anti-solvent addition. A total of 12 anti-solvent addition experiments were carried out. […] The obtained precipitate was isolated for XRPD analysis.
Anti-solvent addition Compound A. A total of 14 anti-solvent addition experiments were carried out. […] The obtained precipitate was isolated for XRPD analysis.

[3] = Slurry conversion experiments (XRPD of isolated solids); settings: for Slurry conversion result (XRPD form): different solvent systems
Method: Slurry conversion experiments were conducted at RT in different solvent systems. About 15˜20 mg of freebase starting material (Compound 1) was suspended in 0.5 mL of solvent in an HPLC vial. Solids were isolated for XRPD analysis after magnetically stirring at RT.
Slurry at 5°. Slurry conversion experiments were conducted at 5° C. in different solvent systems. About 15˜20 mg of freebase starting material (Compound 1) was suspended in 0.5 mL of solvent in an HPLC vial. Solids were isolated for XRPD analysis after magnetically stirring at 5° C.
Slurry at 50°. Slurry conversion experiments were conducted at 50° C. in different solvent systems. About 20 mg of freebase starting material (Compound 1) was suspended in 0.5 mL of solvent in an HPLC vial. Solids were isolated for XRPD analysis after magnetical stirring at 50° C.
Slurry at RT for Compound A. Slurry conversion experiments were conducted at RT in different solvent systems. […] Solids were isolated for XRPD analysis after magnetic stirring at RT.
Slurry at 50° for Compound A. Slurry conversion experiments were conducted at 50° C. in different solvent systems. […] Solids were isolated for XRPD analysis after magnetic stirring at 50° C.

[4] = VH-XRPD analysis / transitions of forms at varying relative humidity; settings: ambient humidity levels 40%
Description: FIG. 19. The sample then reverts to the original form upon reaching 30% RH. […] Transitions of Forms of Compound A at varying RH.

[5] = Slow cooling; settings: Compound A, 50° C. to 5° C. at 0.1° C./min
Method: Slow cooling Compound A. Slow cooling experiments were conducted in four solvent systems. […] The suspension was then heated to 50° C., equilibrated for about 2 hr and filtered to a new vial using a seal membrane (PTFE, pore size of 0.45 μm). Filtrates were slowly cooled down to 5° C. at a rate of 0.1° C./min. The obtained solids were kept isothermal at 5° C. before isolation for XRPD analysis.

[6] = Solid vapor diffusion; settings: RT; for Result: Compound A
Method: Solid vapor diffusion Compound A. Solid vapor diffusion experiments were conducted using 12 different solvents. […] The 20-mL vial was sealed with a cap and kept at RT allowing solvent vapor to interact with the sample.

[7] = Liquid vapor diffusion; settings: Compound A, RT
Method: (§1) Liquid vapor diffusion. Liquid vapor diffusion experiments were conducted in different solvent systems. […] This solution was then placed into a 20-mL vial with 3 mL of corresponding anti-solvent. The 20-mL vial was sealed with a cap and kept at RT allowing sufficient time for organic vapor to interact with the solution. The precipitates were isolated for XRPD analysis.
as §1, with “diffusion Compound A.” for “diffusion.”

[8] = solvent DMSO, anti-solvent EtOAc
[9] = solvent EtOH, anti-solvent MTBE
[10] = solvent THF, anti-solvent n-Heptane

C=CC(=O)N1CCN(c2nc(OC[C@@H]3CCCN3C)nc3c(F)c(-c4nc(N)cc(C)c4C(F)(F)F)c(Cl)cc23)[C@@H](C)C1 [Compound A Form A]
Form change after heating [1]: very slight differences were observed before and after heating | Result ([2]; solvent 2-MeTHF, anti-solvent n-Heptane): Gel | Result ([2]; solvent DCM, anti-solvent MTBE): Compound A Form A | Result ([2]; solvent DCM, anti-solvent Toluene): Compound A Form B | Result ([2]; solvent DCM, anti-solvent n-Heptane): Compound A Form A | Result [2, 8]: Clear | Result ([2]; solvent EtOH, anti-solvent Anisole): Clear solution | Result [2, 9]: Gel | Result ([2]; solvent EtOH, anti-solvent n-Heptane): Compound A Form A | Result ([2]; solvent MeOH, anti-solvent MTBE): Gel | Result ([2]; solvent MeOH, anti-solvent Toluene): Compound A Form A | Result ([2]; solvent THF, anti-solvent EtOAc): Compound A Form A | Result ([2]; solvent THF, anti-solvent MTBE): Compound A Form A | Result ([2]; solvent THF, anti-solvent Toluene): Compound A Form A | Result [2, 10]: Compound A Form A | Slurry conversion result (XRPD form) ([3]; 50° C.): Compound A Form A was obtained | Result ([3]; Compound A slurry at 50° C., Anisole): Compound A Form A | Result ([3]; Compound A slurry at 50° C., CPME): Compound A Form A | Result ([3]; Compound A slurry at 50° C., EtOAc): Compound A Form A | Result ([3]; Compound A slurry at 50° C., IPAc): Compound A Form A | Result ([3]; Compound A slurry at 50° C., MIBK): Compound A Form A | Result ([3]; Compound A slurry at 50° C., MTBE): Compound A Form A | Result ([3]; Compound A slurry at 50° C., Toluene): Compound A Form A | Result ([3]; Compound A slurry at 50° C., n-Heptane): Compound A Form A | Result ([3]; Compound A slurry at RT, 1,4-Dioxane): Compound A Form A | Result ([3]; Compound A slurry at RT, 1,4-Dioxane/IPAc, 1:3): Compound A Form A | Result ([3]; Compound A slurry at RT, 1,4-Dioxane/n-Heptane, 1:3): Compound A Form A | Result ([3]; Compound A slurry at RT, 2-MeTHF/Toluene, 1:4): Compound A Form A | Result ([3]; Compound A slurry at RT, ACN): Compound A Form A | Result ([3]; Compound A slurry at RT, Acetone): Compound A Form A | Result ([3]; Compound A slurry at RT, Acetone/Anisole, 1:3): Compound A Form A | Result ([3]; Compound A slurry at RT, Acetone/n-Heptane, 1:3): Compound A Form A | Result ([3]; Compound A slurry at RT, DCM/IPA, 1:4): Compound A Form A | Result ([3]; Compound A slurry at RT, DMSO/H2O, 1:6): Clear solution | Result ([3]; Compound A slurry at RT, EtOH/n-Heptane, 1:6): Compound A Form A | Result ([3]; Compound A slurry at RT, H2O): Clear solution | Result ([3]; Compound A slurry at RT, H2O/ACN, 1:4): Gel | Result ([3]; Compound A slurry at RT, H2O/IPA, 1:4): Gel | Result ([3]; Compound A slurry at RT, IPA): Compound A Form A | Result ([3]; Compound A slurry at RT, MEK): Compound A Form A | Result ([3]; Compound A slurry at RT, MEK/MTBE, 1:3): Compound A Form A | Result ([3]; Compound A slurry at RT, MEK/n-Heptane, 1:3): Compound A Form A | Result ([3]; Compound A slurry at RT, MeOH/CPME, 1:6): Compound A Form A | Result ([3]; Compound A slurry at RT, THF/H2O, 1:6): Clear solution | Slurry conversion result (XRPD form) ([3]; RT): adipate Type A was obtained | Form after exposure to ambient humidity [4]: Compound A Form D was formed | Result ([5]; ACN): Compound A Form A | Result ([5]; Acetone): Compound A Form A | Result ([5]; IPA): Compound A Form A | Result ([5]; MEK): Compound A Form A | Result ([6]; 1,4-Dioxane vapor): Compound A Form A | Result ([6]; ACN vapor): Compound A Form A | Result ([6]; Acetone vapor): Compound A Form A | Result ([6]; DCM vapor): Compound A Form A | Result ([6]; DMF vapor): Compound A Form A | Result ([6]; DMSO vapor): Compound A Form A | Result ([6]; EtOAc vapor): Compound A Form A | Result ([6]; EtOH vapor): Compound A Form A | Result ([6]; H2O vapor): Compound A Form A | Result ([6]; IPA vapor): Compound A Form A | Result ([6]; MeOH vapor): Compound A Form A | Result ([6]; THF vapor): Compound A Form A | Solid vapor diffusion result (XRPD form) ([6]; 12 different solvents): Compound A Form A was obtained | Result [7, 8]: Clear solution | Result [7, 9]: Gel | Result ([7]; solvent EtOH, anti-solvent n-Pentane): Gel | Result ([7]; solvent H2O, anti-solvent ACN): Gel | Result ([7]; solvent H2O, anti-solvent IPA): Gel | Result ([7]; solvent THF, anti-solvent MTBE): Gel | Result [7, 10]: Amorphous
